Laboratory results as given in ChEMBL document CHEMBL3596185, “Combining Mass Spectrometric Metabolic Profiling with Genomic Analysis: A Powerful Approach for Discovering Natural Products from Cyanobacteria” (J Nat Prod, 2015).

Tests used:
Cannabinoid receptor 1 = Cannabinoid receptor 1 (Homo sapiens, UniProt P21554); assay: Displacement of [3H]-CP55940 from human recombinant CB1 receptor expressed in HEK293 cells after 90 mins by scintillation counting analysis; assay type: cell-based
Homo sapiens = species on record: Homo sapiens; assay: Selectivity ratio of Ki for human recombinant CB2 receptor to Ki for human recombinant CB1 receptor
Cannabinoid receptor 2 = Cannabinoid receptor 2 (Homo sapiens, UniProt P34972); assay: Displacement of [3H]-CP55940 from human recombinant CB2 receptor expressed in HEK293 cells after 90 mins by scintillation counting analysis; assay type: cell-based
Sequence of Cannabinoid receptor 2 (P34972 whole entry): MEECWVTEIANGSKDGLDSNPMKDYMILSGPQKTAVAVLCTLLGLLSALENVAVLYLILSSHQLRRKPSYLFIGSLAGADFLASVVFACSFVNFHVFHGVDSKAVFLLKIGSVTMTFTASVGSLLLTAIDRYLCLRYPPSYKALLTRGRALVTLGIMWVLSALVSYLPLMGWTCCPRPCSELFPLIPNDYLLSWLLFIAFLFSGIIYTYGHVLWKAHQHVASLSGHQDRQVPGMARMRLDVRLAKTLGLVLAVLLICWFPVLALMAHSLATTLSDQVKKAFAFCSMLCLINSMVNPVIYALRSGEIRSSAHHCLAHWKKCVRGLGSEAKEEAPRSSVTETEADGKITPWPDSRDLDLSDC

Sequence of Cannabinoid receptor 1 (P21554 whole entry): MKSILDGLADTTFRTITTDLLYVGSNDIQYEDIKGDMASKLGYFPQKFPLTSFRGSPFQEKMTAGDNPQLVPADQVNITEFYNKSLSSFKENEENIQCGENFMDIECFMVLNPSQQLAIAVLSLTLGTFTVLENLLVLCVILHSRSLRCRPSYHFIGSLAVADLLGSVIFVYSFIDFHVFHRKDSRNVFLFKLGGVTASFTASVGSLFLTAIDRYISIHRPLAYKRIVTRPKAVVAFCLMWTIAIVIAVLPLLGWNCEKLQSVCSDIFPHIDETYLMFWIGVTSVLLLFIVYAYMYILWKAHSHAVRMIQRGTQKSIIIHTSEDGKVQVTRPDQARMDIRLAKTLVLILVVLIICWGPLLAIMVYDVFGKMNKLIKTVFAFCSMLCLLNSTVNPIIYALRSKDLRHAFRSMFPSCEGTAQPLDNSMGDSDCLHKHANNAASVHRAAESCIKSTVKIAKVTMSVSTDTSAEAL

Row | SMILES | Ki (Cannabinoid receptor 1) | Ratio Ki (Homo sapiens) | Ki (Cannabinoid receptor 2)
1 | C=CCCC/C=C/C=C(\C)CCCC/C=C/CC/C=C\C(=O)NC(CO)CO | 470 nM | – | –
2 | COC[C@@H](COC(C)=O)N(C)C(=O)CC/C=C/CCCCC(Cl)CCCCCCCl (some centres not stated) | 590 nM | 2 | 1030 nM
3 | COC[C@@H](COC(C)=O)N(C)C(=O)CC/C=C/CCCCC(Cl)CCCCCC(Cl)Cl (some centres not stated) | 410 nM | 2 | 860 nM
